Values quoted from earlier work in US20240285773A1, “METHODS OF TREATING MYELODYSPLASTIC SYNDROME AND MONITORING THE TREATMENT” (Geron Corporation, priority 2023, published 2024).

Tested on: patients with del(5q) MDS
Conditions: cited from earlier work

SMILES: Nc1cccc2c1CN(C1CCC(=O)NC1=O)C2=O (stereo not shown) [lenalidomide, 3-(4-Amino-1-oxoisoindolin-2-yl)piperidine-2,6-dione]
- Transfusion independence, proportion of patients: two-thirds
